Measurements from patent US20220160804A1, “USE OF LAURUS NOBILIS EXTRACT FRACTIONS TO PROTECT AGAINST AIR POLLUTION RELATED DISEASES” (DSM IP Assets B.V., priority 2019, published 2022).

Assays:
[1] = tested on: Nrf2; assay: Luciferase reporter assay using H4IIE-ARE8L cells (Nrf2 activation); type: cell-based, rat; settings: R-sulforaphane Conc. Final 4.55 μg/ml as printed, concentrations of fractions not given, DMSO 0.45 % control 2921
Method: PloS One. 2012; 7 (5): e36774). […] The media was exchanged every two to three-days. The DMEM assay medium used charcoal treated FBS ([…] transactivation assay was performed in 96 well plates. The plates were seeded with approximately 40,000 cells per well in 100 μ[…] and incubated over night at 37° C. Then the test compounds were diluted in […] and given to the cells as described below. The cells were incubated for at least further 16 h at 37° C. and 5% CO2. Cells were equilibrated to room temperature. Lysis of the cells was done by adding 100 μL lysis solution, Steady-Glo® luciferase buffer according to the manufacturer (Promega) containing 0.5 mM DTT per well and incubated for 10 min at room temperature with gentle shaking. The luminescence was measured within 2 hours after incubation on a luminometer (Mithras, Berthold Technologies). […] We used a rat hepatoma cell line that was stably transfected with a construct that contains eight tandem ARE elements in front of a luciferase reporter gene ([…], et al 2012. PloS One. 2012; 7(5):e36774). All extracts, fractions and pure compounds were tested for concentrations that induce toxicity. Non-toxic concentrations were then selected for treating cells as describes in the methods section.

[2] = tested on: IL-6; assay: IL-6 secretion of A549 cells treated with Diesel Particulate Matter; type: cell-based, human; settings: Table 4, LPS 10 μg/mL
Source text: (§1) The human bronchial epithelial cell line BEAS-2B was from ATCC (American Type Culture Collection, Manassas, Va.) and cultured in Bronchial Epithelial cell Growth Medium (BEGM, Lonza, Wakersville, Md.) in CellBIND® surface plastic flasks (Corning Inc., Corning, N.Y.). The adenocarcinomic human alveolar basal epithelial A549 cell line was obtained from ATCC and cultured in Kaighn's Modification of Ham's F-12 Medium (F-12K medium) (Life Technologies, USA), supplemented with 10% FBS (Sigma, Saint-Louis, Mo.). These cells were cultured at 37° C. in a humidified atmosphere containing 5% CO2.
(§2) BEAS-2B cells were seeded in 12-well CellBIND® surface culture plates (Corning Inc.) at 3 to 4×10^5 cells per well. A549 cells were seeded in 12-well plates at 2×10^5 cells per well. […]
(§3) After 24 h, cells were treated with the diluted Diesel Particulate Matter at 100 μg/ml and in the presence of different concentrations of Laurus Extracts, other plant extracts, fractions and compounds as indicated. […] The concentrations of IL-6 and IL-8 in the supernatants were determined by Luminex kits (BIO-RAD Laboratories, Hercules, Calif.) and used in the LiquiChip Workstation IS 200 (Qiagen, Hilden, Germany). The data were evaluated with the LiquiChip Analyser software (Qiagen).
(§4) Mean values, standard deviation and p-values with Student's t-test were calculated with Excel. […]

[3] = tested on: IL-6; assay: IL-6 secretion of BEAS-2B cells treated with Diesel Particulate Matter; type: cell-based, human; settings: for IL-6 % of PM + DMSO: PM + DMSO = 100
Source text: as §1
BEAS-2B cells were seeded in 12-well CellBIND® surface culture plates (Corning Inc.) at 3 to 4×10^5 cells per well. A549 cells were seeded in 12-well plates at 2×10^5 cells per well.
Diesel Particulate Matter (Standard Reference Material SRM 1650b, National Institute of Standards & Technology, NIST, Gaithersburg, Md.) at 80 mg/ml DMSO (100%) were sonicated for 5 min and thereafter diluted 400 fold in medium. This dilution was twofold further diluted for the assay.
After 24 h, cells were treated with the diluted Diesel Particulate Matter at 100 μg/ml and in the presence of different concentrations of Laurus Extracts, other plant extracts, fractions and compounds as indicated. The final DSMO concentrations were 0.175%. Untreated cells or cells treated with 0.175% DMSO were used as controls. After 24 h, cell supernatants were collected. The concentrations of IL-6 and IL-8 in the supernatants were determined by Luminex kits (BIO-RAD Laboratories, Hercules, Calif.) and used in the LiquiChip Workstation IS 200 (Qiagen, Hilden, Germany). The data were evaluated with the LiquiChip Analyser software (Qiagen).
Mean values, standard deviation and p-values with Student's t-test were calculated with Excel. P-values […] 0.05 were considered as indication for significance.

[4] = tested on: IL-8; assay: IL-8 secretion of A549 cells treated with Diesel Particulate Matter; type: cell-based, human; settings: Table 5, LPS 10 μg/mL
Source text: as §1, §2, §3, §4

C[S+]([O-])CCCCN=C=S (stereo not shown) [R-Sulforaphane, R-sulforaphane]
Nrf-2 activity, Average [1]: 13233 relative units of luciferase fluorescence

Lipopolysaccharide [LPS]
IL-6 ([2]; 24 h): 19.6 pg/mL
IL-6 % of PM + DMSO ([2]; PM + DMSO = 100): 45%
IL-6 induction relative to PM and DMSO ([3]; LPS 10 μg/mL versus PM + DMSO (Table 2)): over 40 times
IL-6 ([3]; Table 2, LPS 10 μg/mL, 24 h): 3760 pg/mL
IL-6 % of PM + DMSO ([3]; Table 2, LPS 10 μg/mL, 24 h): 4482%
IL-6 ([3]; Table 3, LPS 10 μg/mL, 24 h): 6477 pg/mL
IL-6 % of PM + DMSO ([3]; Table 3, LPS 10 μg/mL): 10612%
IL-8 ([4]; 24 h): 406 pg/mL
IL-8 % of PM + DMSO ([4]; PM + DMSO = 100): 140%
